Experimental findings from US8114410B2, “Composition and methods for the inhibition of membrane fusion by paramyxoviruses” (priority 2001, dated 2012) are described below.

Each structure is given as a SMILES string. pIC50: −log10 of the molar value.

Test [1] concerns HeV-mediated fusion (HeLa cells expressing HeV F and G, U373 target cells).
Test [2] has as its system NiV-mediated fusion (HeLa cells expressing NiV F and G, U373 target cells).

`CC[C@H](C)[C@H](NC(=O)[C@H](Cc1ccc(O)cc1)NC(=O)[C@H](CC(=O)O)NC(=O)[C@H](CCCCN)NC(=O)[C@H](CO)NC(=O)[C@H](CCC(N)=O)NC(=O)[C@H](CCC(N)=O)NC(=O)[C@H](CC(C)C)NC(=O)[C@H](CO)NC(=O)[C@H](CCC(N)=O)NC(=O)[C@H](CC(N)=O)NC(=O)[C@H](CCSC)NC(=O)[C@H](CO)NC(=O)[C@H](CO)NC(=O)[C@@H](NC(=O)[C@H](CCC(N)=O)NC(=O)[C@H](CO)NC(=O)[C@H](CO)NC(=O)[C@@H](NC(=O)[C@H](CC(=O)O)NC(=O)[C@@H](NC(=O)[C@H](CCCCN)NC(=O)[C@H](CC(=O)O)NC(=O)[C@@H](NC(=O)[C@H](Cc1ccccc1)NC(=O)[C@@H](NC(=O)[C@@H]1CCCN1C(=O)[C@@H]1CCCN1)C(C)C)[C@@H](C)O)C(C)C)[C@@H](C)CC)[C@@H](C)CC)C(=O)N[C@@H](CCCCN)C(=O)N[C@@H](CCC(=O)O)C(=O)N[C@@H](C)C(=O)N[C@@H](CCC(N)=O)C(=O)N[C@@H](CCCNC(=N)N)C(=O)N[C@@H](CC(C)C)C(=O)N[C@@H](CC(C)C)C(=O)N[C@@H](CC(=O)O)C(=O)N[C@H](C(=O)N[C@H](C(=O)N[C@@H](CC(N)=O)C(=O)N1CCC[C@H]1C(=O)N[C@@H](CO)C(=O)N[C@@H](CC(C)C)C(=O)O)C(C)C)[C@@H](C)O` [NiV FC1]: in test [1], the pIC50 is 8.24 to 8.28 and the “Inhibition of HeV-mediated fusion (in words)” value is listed as “completely inhibitory in the nM range”. Moreover, in test [2], the pIC50 was 8.24 to 8.28 and the “Inhibition of NiV-mediated fusion (in words)” value is reported as “completely inhibitory in the nM range”.

A word on the pIC50: it is the negative decadic logarithm of the IC50, by convention in mol/L.
